For 27 compounds, IC50 results are on record in patent US10730866B2, “Indole derivatives and use thereof” (Purdue Pharma L.P., priority 2014, dated 2020).

human Nav1.7, sequence (Q15858 other isoform, or with tags, fused parts or gaps): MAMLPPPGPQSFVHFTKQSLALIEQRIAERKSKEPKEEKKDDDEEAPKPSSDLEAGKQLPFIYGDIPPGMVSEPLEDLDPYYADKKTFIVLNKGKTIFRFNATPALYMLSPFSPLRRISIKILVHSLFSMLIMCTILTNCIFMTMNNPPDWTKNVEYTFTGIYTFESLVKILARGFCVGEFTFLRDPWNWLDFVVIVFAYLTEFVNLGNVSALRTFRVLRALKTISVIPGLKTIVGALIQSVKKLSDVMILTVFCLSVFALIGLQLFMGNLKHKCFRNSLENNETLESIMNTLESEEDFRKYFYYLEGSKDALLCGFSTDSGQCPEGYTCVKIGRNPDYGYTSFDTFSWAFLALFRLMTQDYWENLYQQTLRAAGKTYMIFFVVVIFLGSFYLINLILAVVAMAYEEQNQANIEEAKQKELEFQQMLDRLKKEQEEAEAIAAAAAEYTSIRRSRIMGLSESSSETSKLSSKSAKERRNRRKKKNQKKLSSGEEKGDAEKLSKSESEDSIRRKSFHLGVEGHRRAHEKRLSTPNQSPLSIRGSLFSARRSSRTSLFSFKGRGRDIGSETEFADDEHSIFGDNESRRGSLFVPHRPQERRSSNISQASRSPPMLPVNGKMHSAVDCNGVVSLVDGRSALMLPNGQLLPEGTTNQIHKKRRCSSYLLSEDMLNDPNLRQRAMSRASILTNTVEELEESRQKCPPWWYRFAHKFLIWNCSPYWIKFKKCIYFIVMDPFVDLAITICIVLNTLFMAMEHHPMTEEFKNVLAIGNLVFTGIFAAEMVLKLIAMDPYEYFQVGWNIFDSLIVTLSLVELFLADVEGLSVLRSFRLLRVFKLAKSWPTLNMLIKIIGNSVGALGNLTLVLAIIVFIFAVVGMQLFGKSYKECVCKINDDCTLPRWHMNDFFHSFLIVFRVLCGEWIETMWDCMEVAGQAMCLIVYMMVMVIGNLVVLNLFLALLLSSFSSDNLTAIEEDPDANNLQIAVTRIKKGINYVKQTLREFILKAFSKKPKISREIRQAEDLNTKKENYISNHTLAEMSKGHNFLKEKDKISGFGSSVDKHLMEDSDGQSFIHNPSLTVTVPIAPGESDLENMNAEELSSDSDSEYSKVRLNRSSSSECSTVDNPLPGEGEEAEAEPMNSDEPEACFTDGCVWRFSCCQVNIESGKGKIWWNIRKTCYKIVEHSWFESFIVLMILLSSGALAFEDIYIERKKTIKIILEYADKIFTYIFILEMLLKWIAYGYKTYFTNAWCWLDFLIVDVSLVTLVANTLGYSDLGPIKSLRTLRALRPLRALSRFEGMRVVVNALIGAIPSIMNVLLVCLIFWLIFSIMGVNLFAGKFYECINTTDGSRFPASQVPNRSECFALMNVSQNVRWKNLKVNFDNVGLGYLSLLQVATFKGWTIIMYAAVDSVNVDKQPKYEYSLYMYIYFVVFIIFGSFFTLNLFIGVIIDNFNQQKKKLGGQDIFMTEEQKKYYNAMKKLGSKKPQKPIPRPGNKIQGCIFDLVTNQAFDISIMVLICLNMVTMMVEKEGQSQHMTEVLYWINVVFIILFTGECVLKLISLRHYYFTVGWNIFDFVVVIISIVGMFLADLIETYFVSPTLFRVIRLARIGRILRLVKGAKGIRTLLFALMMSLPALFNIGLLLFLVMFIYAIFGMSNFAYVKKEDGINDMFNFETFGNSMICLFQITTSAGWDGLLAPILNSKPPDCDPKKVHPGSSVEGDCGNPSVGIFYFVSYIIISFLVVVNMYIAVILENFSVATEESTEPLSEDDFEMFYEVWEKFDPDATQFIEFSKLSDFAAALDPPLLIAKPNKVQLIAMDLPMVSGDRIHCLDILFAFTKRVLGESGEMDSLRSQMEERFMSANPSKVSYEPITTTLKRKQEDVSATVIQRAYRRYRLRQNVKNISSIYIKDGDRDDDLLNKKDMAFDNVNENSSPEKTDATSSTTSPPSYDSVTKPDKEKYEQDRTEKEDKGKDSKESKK

The test has as its target human Nav1.7 (Homo sapiens (Human), UniProt Q15858). Nature of the test: FLIPR or FLIPR TETRA sodium dye assay for sodium channel blocking activity. The test is classed as cell-based. Particulars: recombinant HEK293 cells expressing human Nav1.7. The procedure:
In vitro assays were performed in a recombinant cell line expressing cDNA encoding the alpha subunit (Nav1.7, SCN9a, PN1, NE) of human Nav1.7 (Accession No. NM_002977). The cell line was provided by investigators at Yale University (Cummins et al, J. Neurosci. 18(23): 9607-9619 (1998)). For dominant selection of the Nav1.7-expressing clones, the expression plasmid co-expressed the neomycin resistance gene. The cell line was constructed in the human embryonic kidney cell line, HEK293, under the influence of the CMV […] promoter, and stable clones were selected using limiting dilution cloning and antibiotic selection using the neomycin analogue, G418. Recombinant beta and gamma subunits were not introduced into this cell line. Additional cell lines expressing recombinant Nav1.7 cloned from other species can also be used, alone or in combination with various beta subunits, gamma subunits or chaperones.
Unless otherwise noted, cell culture reagents were purchased from Mediatech of Herndon, Va. The recombinant Nav1.7/HEK293 cells were routinely cultured in growth medium consisting of Dulbecco's […] essential medium containing 10% fetal bovine serum (FBS, Hyclone, Thermo Fisher Scientific, Logan, Utah), 100 U/mL penicillin, 100 μg/mL streptomycin, 2-4 mM L-glutamine, and […] G418. For natural, non-recombinant cell lines, the selective antibiotic was omitted, and additional media formulations can be applied as needed.
The final buffer consisted of 20 mM Hepes, pH 7.3, 1.261 mM CaCl2, 0.493 mM MgCl2, 0.407 mM Mg(SO)4, 5.33 mM KCl, 0.441 mM KH2PO4, 137 mM NaCl, 0.336 mM Na2HPO4 and […] D-glucose (Hanks et al., Proc. Soc. Exp. Biol. Med. 71:196 (1949)), and the simple formulation was typically the basic buffer throughout the assay (i.e., all wash and addition steps).
The fluorescence indicator used in the primary fluorescence assay was the cell permeant version of CoroNa™ Green (Invitrogen, Molecular Probes, Eugene, Oreg.), a dye that emits light in the fluorescence range (Harootunian et al., J. Biol. Chem. 264(32):19458-19467 (1989)). The intensity of this emission, but not the wavelength range, is increased when the dye is exposed to Na^+ ions, which it can bind with partial selectivity. Cells expressing Nav1.7 or other sodium channels were loaded with the CoroNa™ Green dye immediately in advance of the fluorescence assay, and then, after agonist stimulation, the mobilization of Na^+ ions was detected as the Na^+ ions flowed from the extracellular fluid into the cytoplasm through the activated sodium channel pores. The dye was stored in the dark as a lyophilized powder, and then an aliquot was dissolved immediately before the cell loading procedure, according to the instructions of the manufacturer, to a stock concentration of 10 mM in DMSO. It was then diluted in the assay buffer to a 4× concentrated working solution, so that the final concentration of dye in the cell loading buffer was 5 μM.
In the fluorescence assays, two agonists were used in combination, namely 1) veratridine; and 2) the venom from the yellow scorpion, Leiurus quinquestriatus hebraeus. Veratridine is an alkaloid small molecule that facilitates the capture of channel openings by inhibiting inactivation, and the scorpion venom is a natural preparation that includes peptide toxins selective for different subsets of voltage-gated sodium channels. These scorpion toxins inhibit the fast inactivation of their cognate target channels. Stock solutions of the agonists were prepared to 40 mM in DMSO (veratridine) and 1 mg/mL in dH2O (scorpion venom), and then diluted to make a 4× or 2× stock (depending on the particular assay) in assay buffer, the final concentration being 100 μM (veratridine) and 10 μg/mL (scorpion venom). Both of the agonists were purchased from Sigma Aldrich, St. Louis, Mo.
Test compounds were dissolved in DMSO to yield 10 mM stock solutions. […]
`CC1CN(C(=O)c2cccc(-c3ccc4[nH]ccc4c3)n2)CC(C)O1` (stereo not drawn) [Compound 86, (6-(1H-indol-5-yl)pyridin-2-yl)(2,6-dimethylmorpholino)methanone]: the concentration for half-maximal inhibition (IC50) was over 20 µM. To `O=C(Nc1nnn[nH]1)c1cccc(-c2ccc3[nH]ccc3c2)n1` [Compound 87, 6-(1H-indol-5-yl)-N-(1H-tetrazol-5-yl)picolinamide] belongs over 20 µM; to `O=C(Nc1ccc(C(F)(F)F)cc1)c1cc(N[C@H]2CCNC2=O)cc(-c2ccc3[nH]ccc3c2)n1` [Compound 88, (S)-6-(1H-indol-5-yl)-4-((2-oxopyrrolidin-3-yl)amino)-N-(4-(trifluoromethyl)phenyl)picolinamide], 4.89 ± 0.388 µM. In the case of `OC[C@@H](O)c1cccc(-c2ccc3nn(Cc4ccc(C(F)(F)F)cc4)cc3c2)n1` [Compound 108, (S)-1-(6-(2-(4-(trifluoromethyl)benzyl)-2H-indazol-5-yl)pyridin-2-yl)ethane-1,2-diol] it was 4.68 ± 0.412 µM; in that of `OC[C@@H](O)c1cccc(-c2ccc3c(ccn3Cc3ccc(C(F)(F)F)cc3)c2)n1` [Compound 109, (S)-1-(6-(1-(4-(trifluoromethyl)benzyl)-1H-indol-5-yl)pyridin-2-yl)ethane-1,2-diol], 0.177 ± 0.005 µM; in that of `OC[C@@H](O)c1cccc(-c2ccc3c(c2)ncn3Cc2ccc(C(F)(F)F)cc2)n1` [Compound 110, (S)-1-(6-(1-(4-(trifluoromethyl)benzyl)-1H-benzo[d]imidazol-5-yl)pyridin-2-yl)ethane-1,2-diol], 3.44 ± 0.712 µM. To `O=S(=O)(N1CCCCC1)n1ccc2cc(-c3cccc([C@H](O)CO)n3)ccc21` [Compound 111, (S)-1-(6-(1-(piperidin-1-ylsulfonyl)-1H-indol-5-yl)pyridin-2-yl)ethane-1,2-diol] belongs 0.716 ± 0.073 µM; to `C[C@H](Nc1cc(C(N)=O)nc(-c2ccc3c(ccn3Cc3ccc(C(F)(F)F)cc3)c2)n1)C(N)=O` [Compound 112, (S)-6-((1-amino-1-oxopropan-2-yl)amino)-2-(1-(4-(trifluoromethyl)benzyl)-1H-indol-5-yl)pyrimidine-4-carboxamide], 4.12 ± 0.525 µM. For the compound `C[C@H](Nc1cc(C(N)=O)nc(-c2ccc3c(ccn3CC3CCCCC3)c2)n1)C(N)=O` [Compound 113, (S)-6-((1-amino-1-oxopropan-2-yl)amino)-2-(1-(cyclohexylmethyl)-1H-indol-5-yl)pyrimidine-4-carboxamide], the IC50 is 4.43 ± 0.541 µM. As to `N#Cc1cc([C@@H](O)CO)cc(-c2ccc3c(ccn3Cc3ccc(C(F)(F)F)cc3)c2)n1` [Compound 119, (R)-4-(1,2-dihydroxyethyl)-6-(1-(4-(trifluoromethyl)benzyl)-1H-indol-5-yl)picolinonitrile], the IC50 is 5.09 ± 0.356 µM. To `NC(=O)c1cc([C@H](O)CO)cc(-c2ccc3c(ccn3Cc3ccc(C(F)(F)F)cc3)c2)n1` [Compound 121, (S)-4-(1,2-dihydroxyethyl)-6-(1-(4-(trifluoromethyl)benzyl)-1H-indol-5-yl)picolinamide] belongs 2.37 ± 0.364 µM; to `NC(=O)c1cc(-c2ccc3c(ccn3Cc3ccc(C(F)(F)F)cc3)c2)cc([C@@H](O)CO)n1` [Compound 122, (R)-6-(1,2-dihydroxyethyl)-4-(1-(4-(trifluoromethyl)benzyl)-1H-indol-5-yl)picolinamide], 1.74 ± 0.214 µM; to `CC(C)Cn1ccc2cc(-c3cc([C@H](O)CO)cc(C(N)=O)n3)ccc21` [Compound 124, (S)-4-(1,2-dihydroxyethyl)-6-(1-isobutyl-1H-indol-5-yl)picolinamide], 4.92 ± 0.7 µM. In the case of `CC(C)Cn1ccc2cc(-c3cc([C@@H](O)CO)cc(C(N)=O)n3)ccc21` [Compound 125, (R)-4-(1,2-dihydroxyethyl)-6-(1-isobutyl-1H-indol-5-yl)picolinamide] it was over 20 µM; in that of `CC(C)Cn1ccc2cc(-c3cc(C(N)=O)nc([C@H](O)CO)c3)ccc21` [Compound 126, (S)-6-(1,2-dihydroxyethyl)-4-(1-isobutyl-1H-indol-5-yl)picolinamide], 5.91 ± 0.536 µM. As to `Cn1cc(-c2cccc(C(F)(F)F)c2)c2cc(-c3cccc(C(N)=O)n3)ccc21` [Compound 129, 6-(1-methyl-3-(3-(trifluoromethyl)phenyl)-1H-indol-5-yl)picolinamide], the IC50 was in the range of 10 to 20 µM. As to `Cn1cc(-c2ccc(C(F)(F)F)cc2)c2cc(-c3cccc(C(N)=O)n3)ccc21` [Compound 130, 6-(1-methyl-3-(4-(trifluoromethyl)phenyl)-1H-indol-5-yl)picolinamide], the IC50 was over 20 µM. Regarding `CCN(CC)CCn1cc(-c2ccc(F)cc2)c2ccc(-c3cccc(C(N)=O)n3)cc21` [Compound 131, 6-(1-(2-(diethylamino)ethyl)-3-(4-fluorophenyl)-1H-indol-6-yl)picolinamide], the IC50 was over 20 µM. `Nc1cc(C(=O)Nc2ccc(C(F)(F)F)cc2)nc(-c2ccc3occc3c2)n1` [Compound 138, 6-amino-2-(benzofuran-5-yl)-N-(4-(trifluoromethyl)phenyl)pyrimidine-4-carboxamide]: the IC50 is 3.66 ± 2.4 µM. In the case of `O=C(Nc1ccc(C(F)(F)F)cc1)c1cccc(-c2ccc3[nH]cc(C(=O)O)c3c2)n1` [Compound 139, 5-(6-((4-(trifluoromethyl)phenyl)carbamoyl)pyridin-2-yl)-1H-indole-3-carboxylic acid] it was over 20 µM; in that of `NC(=O)c1c[nH]c2ccc(-c3cccc(C(=O)Nc4ccc(C(F)(F)F)cc4)n3)cc12` [Compound 140, 5-(6-((4-(trifluoromethyl)phenyl)carbamoyl)pyridin-2-yl)-1H-indole-3-carboxamide], over 20 µM. On to `NC(=O)CC[C@H](NC(=O)c1c[nH]c2ccc(-c3cccc(C(=O)Nc4ccc(C(F)(F)F)cc4)n3)cc12)C(N)=O` [Compound 141, (S)-2-(5-(6-((4-(trifluoromethyl)phenyl)carbamoyl)pyridin-2-yl)-1H-indole-3-carboxamido)pentanediamide], for which the IC50 is over 20 µM. Take `NC(=O)c1cccc(-c2ccc3c(c2)c(C(N)=O)cn3Cc2ccc(C(F)(F)F)cc2)n1` [Compound 142, 5-(6-carbamoylpyridin-2-yl)-1-(4-(trifluoromethyl)benzyl)-1H-indole-3-carboxamide]: the IC50 was over 20 µM. On to `C[C@H](NC(=O)c1cn(Cc2ccc(C(F)(F)F)cc2)c2ccc(-c3cccc(C(N)=O)n3)cc12)C(N)=O` [Compound 143, (S)-N-(1-amino-1-oxopropan-2-yl)-5-(6-carbamoylpyridin-2-yl)-1-(4-(trifluoromethyl)benzyl)-1H-indole-3-carboxamide], for which the IC50 was over 20 µM. To `NC(=O)c1cccc(-c2ccc3c(c2)c(CN[C@H]2CCNC2=O)cn3Cc2ccc(C(F)(F)F)cc2)n1` [Compound 144, (S)-6-(3-(((2-oxopyrrolidin-3-yl)amino)methyl)-1-(4-(trifluoromethyl)benzyl)-1H-indol-5-yl)picolinamide] belongs 2.54 ± 0.181 µM. To `NC(=O)c1cccc(-c2ccc3c(c2)c(CN[C@H]2CCNC2=O)cn3CC2CCCCC2)n1` [Compound 145, (S)-6-(1-(cyclohexylmethyl)-3-(((2-oxopyrrolidin-3-yl)amino)methyl)-1H-indol-5-yl)picolinamide] belongs 10 to 20 µM; to `NC(=O)[C@H](O)[C@@H](O)c1cccc(-c2ccc3c(ccn3Cc3ccc(C(F)(F)F)cc3)c2)n1` [Compound 151, (2R,3S)-2,3-dihydroxy-3-(6-(1-(4-(trifluoromethyl)benzyl)-1H-indol-5-yl)pyridin-2-yl)propanamide], 0.773 ± 0.09 µM.
